These results are taken from patent US8138158B2, “Compositions and methods for therapy for diseases characterized by defective chloride transport” (Children's Hospital & Research Center at Oakland, priority 1997, dated 2012).

The test system of one assay is Calu-3 monolayers. Kind of assay: Transepithelial short-circuit current (Isc) across unstimulated Calu-3 monolayers. The format is cell-based, human. Conditions: compound added to mucosal (or serosal) perfusion; L-ascorbic acid 100 μM; dehydroascorbic acid 10, 100 or 300 μM. In outline: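 Unstimulated Calu-3 monolayers given compound on the mucosal side at increasing concentrations. Chloride current recorded with serosal-to-mucosal chloride gradient at 0 mV, 2 mV pulses. Forskolin (20 μM, serosal) used for comparison.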

Another assay deals with Calu-3 airway epithelia. Briefly: Short-circuit current (transepithelial Cl secretion) across Calu-3 airway epithelia, Examples 12-13. The format is cell-based, human. As for the experimental part: Short-circuit current measurement. Calu-3 or CF15 cells were grown as monolayers, mounted in Ussing chambers and short-circuit current (ISC) was recorded as described (Illek, B. & Fischer, H. (1998) Am. J. Physiol. 275, L902-L910). At 20-50 second intervals, transepithelial voltage was clamped from zero to 2 mV and the transepithelial resistance (Rte) was calculated. A serosa-to-mucosa-directed Cl gradient was applied. Serosal Ussing chamber solution contained (in mM): 120 NaCl, 20 NaHCO3, 5 KHCO3, 1.2 NaH2PO4, 5.6 glucose, 2.5 CaCl2, 1.2 MgCl2. In mucosal Ussing chamber solutions, all Cl salts were exchanged for gluconate salts.
Vitamin C activation of CFTR-mediated Cl secretion was studied in Calu-3 cells grown as epithelial monolayers (FIG. 21A). Exposure of the apical membrane to maximal concentrations of L-ascorbic acid stimulated transepithelial Cl currents (ISC) in a sustained fashion to 96±11 μA/cm^2 (n=22). Subsequent addition of forskolin further increased ISC to 141±33 μA/cm^2 (n=9, p=0.029). On average, Cl secretion was stimulated by ascorbate to 68% of the currents elicited by forskolin. The Cl channel blocker diphenylcarboxylate (DPC, 4 mM) was added as a measure for the transcellular Cl current decreasing ISC to 30±4 μA/cm^2. When Cl secretion was first stimulated with forskolin (to 106±23 μA/cm^2, n=4) ascorbate had no significant effect on Ise (at 100 μM: ΔICl=−1.5±3.5 μA/cm^2, n=4, not different from zero, one-sample t test). Half-maximal stimulatory constant averaged 36.5±2.9 μm as determined from transepithelial dose-response experiments.
Furthermore, the response to ascorbate in Na-containing medium was blunted in the presence of phloretin, a known inhibitor of the sodium-dependent vitamin C transporters SVCT1 and SVCT2 (Tsukaguchi, H., Tokui, T., Mackenzie, B., Berger, U. V., Chen, X. Z., Wang, Y., Brubaker, R. F. & Hediger, M. A. (1999) Nature 399, 70-75). […] Molecular expression of SVCT1 and SVCT2 transcripts in Calu-3 cells was verified using RT-PCR and DNA sequencing analysis. For comparison, human ciliated tracheal epithelial cultures (hTE) and a nasal cystic fibrosis airway cell line (CF15) were included. […] The recombinantly expressed SVCT2-EGFP fusion protein was targeted exclusively to the apical membrane pole of CF15 epithelia.

Assay [1] has as its system nasal potential difference (NPD). Briefly: Nasal potential difference (NPD) measurements in healthy volunteers, Example 12. The format is in vivo, human. As for the experimental part: Nasal potential difference (NPD) measurements. Measurements of NPD were performed in healthy volunteers as described (Illek, B. & Fischer, H., Supra). The study protocol was approved by the Internal Review Board at Children's Hospital Oakland. Solutions and test drugs were perfused into one nostril at ˜5 ml/min at room temperature (23-25° C.). NaCl solution contained (in mM): 145 NaCl, 4 KCl, 1 CaCl2, 1 MgCl2, 10 Hepes, pH=7.4. In Cl free solutions all Cl salts were replaced by the respective gluconate salts. All solutions were sterile filtered before use. NPD was sensed with an Ag/AgCl/agar electrode placed in the perfusing tube with respect to an electrode placed on a slightly scratched skin part on the forearm (Alton, E. W. F. W., Currie, A. D., Logan-Sinclair, R., Warner, J. O., Hodson, M. E. & Geddes, D. M. (1990) Eur. Resp. J. 3, 922-926).
In vivo effects of ascorbic acid on Cl transport were evaluated using the nasal potential difference (NPD) assay for Cl channel function. The Cl-selective NPD was measured in amiloride-containing (100 μm) and chloride-free solutions. These experiments served as an important control to verify the significance of the transepithelial results obtained with ascorbic acid in Calu-3 cells. In close agreement with the transepithelial measurements, NPD was progressively hyperpolarized during the exposure of the nasal mucosa to L-ascorbic acid (by −6.7±0.4 mV, n=3) and the cAMP-stimulating agonist isoproterenol (by −5.5±0.5 mV, n=4) (FIG. 21C). A dose of 300 μm L-ascorbic acid hyperpolarized NPD to 72% of the NPD in presence of the cAMP agonist isoproterenol (10 μM).

“Also recorded” adds a separate entry of the source.

In the case of `O=C1O[C@H](C(O)CO)C(O)=C1O` (stereo partly drawn) [L-ascorbic acid, L-xyloascorbic acid], the “transepithelial chloride currents in unstimulated tissue” value with Calu-3 monolayers is listed as “very effectively stimulated transepithelial chloride secretion; also recorded: very effectively stimulated transepithelial chloride currents”. Also, the “concentrations causing maximal stimulation” value with Calu-3 airway epithelia (FIG. 21B) is more than 300 µM. In the assay with Calu-3 airway epithelia (Homo sapiens, Calu-3, transepithelial dose-response experiments, read-out: Half-maximal stimulatory constant), the EC50 came to 36.5 ± 2.9 µM. Besides, in the assay with Calu-3 airway epithelia (apical exposure to maximal concentrations of L-ascorbic acid, n=22), the “transepithelial Cl currents (ISC) stimulated to” value was 96±11 μA/cm^2. Also, in the assay with Calu-3 airway epithelia (ascorbate at 100 μM after forskolin, n=4, not different from zero), the “ΔICl after forskolin prestimulation” value is −1.5±3.5 μA/cm^2. For the same molecule, the “ascorbate-stimulated Cl secretion in absence of extracellular Na” value with Calu-3 airway epithelia (no Na on the mucosal side) was “significantly reduced”. Also, the “Cl secretion stimulated, % of the currents elicited by forskolin” value in the assay on Calu-3 airway epithelia (on average) is 68%. The “NPD hyperpolarized to % of the NPD in presence of isoproterenol” value in assay [1] (300 μm L-ascorbic acid vs isoproterenol 10 μM) was determined as 72%. Moreover, the “NPD hyperpolarized by” value in assay [1] (L-ascorbic acid, amiloride (100 μm), chloride-free, n=3) is listed as −6.7±0.4 mV.
